The results in this text go back to ChEMBL document CHEMBL5335806, “Cytotoxic leuconoxine-type diazaspiroindole alkaloids isolated from Cryptolepis dubia” (Bioorg Med Chem Lett, 2024).

One assay deals with MDA-MB-435. Kind of assay: Cytotoxicity against human MDA-MB-435 cells assessed as inhibition of cell viability incubated for 72 hrs. Type of assay: functional, cell-based. Conditions: MDA-MB-435, 72 h.
The test system of another assay is HT-29. Briefly: Cytotoxicity against human HT-29 cells assessed as inhibition of cell viability incubated for 72 hrs. Type of assay: functional, cell-based. Conditions: HT-29, 72 h.
The next assay deals with OVCAR-3. Kind of assay: Cytotoxicity against human OVCAR-3 cells assessed as inhibition of cell viability incubated for 72 hrs. Type of assay: functional, cell-based. Conditions: OVCAR-3, 72 h.
Another assay relates to MDA-MB-231. Kind of assay: Cytotoxicity against human MDA-MB-231 cells assessed as inhibition of cell viability incubated for 72 hrs. Type of assay: functional, cell-based. The following applies: MDA-MB-231, 72 h.
In assay [1] the test system is Staphylococcus epidermidis. Briefly: Antibacterial activity against Staphylococcus epidermidis by a two-fold serial dilution method. Type of assay: functional.
The subject of another assay is Escherichia coli. Kind of assay: Antibacterial activity against Escherichia coli TISTR 780 by a two-fold serial dilution method. In kind it is functional.
The next assay deals with Salmonella typhimurium. Briefly: Antibacterial activity against Salmonella typhimurium TISTR 291 by a two-fold serial dilution method. In kind it is functional, Salmonella enterica subsp. enterica serovar Typhimurium. Conditions: Salmonella enterica.
The test system of the next assay is Micrococcus luteus. Kind of assay: Antibacterial activity against Micrococcus luteus by a two-fold serial dilution method. Type of assay: functional.

Structures are written as SMILES. Converted amounts (≈) assume the structure as drawn.

For the molecule `CC[C@@]12CCCN3C(=O)C(Cl)=C4c5ccccc5N(C(=O)CC1)[C@]432`, the IC50 (usually the concentration that inhibits the measured activity by half) in the assay with MDA-MB-435 is greater than 10 µM; with HT-29, greater than 10 µM; in the assay on OVCAR-3 it was 5.9 µM; in the assay on MDA-MB-231 it was greater than 10 µM.

Turning to `CC[C@@]12CCCN3C(=O)C=C4c5ccccc5N(C(=O)CC1)[C@]432`, the MIC (in assay [1]; in the assay on Escherichia coli; in the assay with Salmonella typhimurium; against Micrococcus luteus) was 64 µg/mL (≈ 208 µM) throughout. In addition, the half-maximal inhibitory concentration (IC50) in the assay on MDA-MB-435 is greater than 10 µM; in the assay on HT-29 it was greater than 10 µM; in the assay on OVCAR-3, 9.1 µM; with MDA-MB-231, greater than 10 µM.
